# From patent US20220409620A1, “REDUCING IMMUNOGENICITY TO PEGLOTICASE” (Horizon Pharma Rheumatology LLC, priority 2016, published 2022)
# System: adult patients with uncontrolled gout
# Assay: Serum uric acid (sUA) levels and sUA responder rate, open-label study of pegloticase with MTX (MIRROR OL)
# Assay type: in vivo, human
# Settings: Month 6 sUA Responders
# Method: The primary objective is to estimate the response rate during Month 6 (Weeks 20, 22, and 24), as measured by the sustained normalization of serum uric acid (SUA) to <6 mg/dL for at least 80% of the time during Month 6 in subjects receiving KXX with MTX.
# The primary efficacy outcome endpoint is the sustained normalization of SUA to <6 mg/dL for at least 80% of the time during month 6 (weeks 20, 22, and 24) in subjects receiving KXX with MTX. […] Participants who achieve this endpoint were classified as “responders.” Serum uric acid (SUA) responders may also be defined as participants achieving and maintaining SUA <6 mg/dL for at least 80% of the time during Month 6 (Weeks 20, 22, and 24).
# Blood samples may be collected prior to each pegloticase infusion for measurement of SUA levels using the Beckman Coulter AU System Uric Acid procedure. Participants were declared “non-responders” if there were SUA measures >6 mg/dL at 2 consecutive study visits beginning with the week 2 visit. […] This assumption and subsequent discontinuation of pegloticase was consistent with the protocol of large phase III randomized controlled trials and the product label. A formal stopping rule was 2 occasions of SUA levels of greater than 6 mg/dL.
# Clinical Chemistry—Blood samples were collected prior to each pegloticase infusion for measurement of SUA levels (primary efficacy parameter) using the Beckman Coulter AU System Uric Acid procedure. In this procedure uric acid is converted to hydrogen peroxide. Hydrogen peroxide reacts with reagent to produce a chromophore which is read bichromatically at 660/800 nm. The amount of dye formed is proportional to the uric acid concentration in the sample.
# Serum samples for measurement of SUA levels were collected at the Screening Visit, the Week −4 Visit (prior to the first dose of MTX), and the Week −2 Visit during the MTX Run-in Period; within 48 hours prior to each pegloticase infusion and after the end of each pegloticase infusion prior to discharge from the site during the Pegloticase+IMM Period; at the non-infusion Week 52/End of Study/Early Termination Visits and at the Post Treatment 3 and 6 Month Follow-up Visits. Additional serum samples for SUA levels were collected at optional non-infusion (Frequent Sampling) Visits at Weeks 1 and 7. […] Subjects with SUA level >6 mg/dL at 2 consecutive visits beginning at Week 2 visit discontinued treatment, completed the End of Pegloticase Infusion Visit procedures within 2 weeks and continued the subject visits according to the protocol (without treatment).
# Efficacy analyses were performed using the modified intention-to-treat (mITT) population, defined as all enrolled subjects who received ≥1 dose of pegloticase. The proportion of Month 6 responders was summarized, along with a 95% confidence interval for the proportion. The proportion of Month 3 and overall (Months 3 and 6 combined) responders was analyzed similarly.
# A subject was declared a non-responder if the subject had SUA level >6 mg/dL at 2 consecutive study visits beginning with the Week 2 Visit. In addition, a subject who withdraws from study treatment for any reason after the first dose of pegloticase in the KXX+MTX Period and prior to Month 6 (for the primary endpoint) or Month 3 (for the secondary endpoint) was considered a non-responder if SUA values were not collected at the planned time points.
# Patients were administered oral MTX (15 mg/week) and folate (1 mg/day) 4 weeks prior to the first pegloticase infusion (Day 1) and throughout the pegloticase treatment period. Blood was drawn prior to each infusion to measure sUA level, monitor clinical parameters, and examine for ADA development. All patients followed typical IR prophylaxis protocols (fexofenadine one day before and the morning of each infusion and acetaminophen and IV corticosteroid the morning of each infusion).
substance,measurement,setting,value
pegloticase,"Serum Uric Acid, Observed, Median","Week 14-Post-Infusion, n=10",0.30 mg/dL
same,"sUA <6 mg/dL, n (%)","Week 14-Post-Infusion, n=10",10 (100%)
same,"Serum Uric Acid, Change from Baseline, Mean (SD)","Week 14-Pre-Infusion, n=11",−8.97 (2.810) mg/dL
same,"Serum Uric Acid, Change from Baseline, Median","Week 14-Pre-Infusion, n=11",-8.80 mg/dL
same,"Serum Uric Acid, Observed, Mean (SD)","Week 14-Pre-Infusion, n=11",0.30 (0.000) mg/dL
same,"Serum Uric Acid, Observed, Median","Week 14-Pre-Infusion, n=11",0.30 mg/dL
same,"sUA <6 mg/dL, n (%)","Week 14-Pre-Infusion, n=11",11 (100%)
same,"Serum Uric Acid, Change from Baseline, Mean (SD)","Week 16-Post-Infusion, n=11",−8.97 (2.810) mg/dL
same,"Serum Uric Acid, Change from Baseline, Median","Week 16-Post-Infusion, n=11",-8.80 mg/dL
same,"Serum Uric Acid, Observed, Mean (SD)","Week 16-Post-Infusion, n=11",0.30 (0.000) mg/dL
same,"Serum Uric Acid, Observed, Median","Week 16-Post-Infusion, n=11",0.30 mg/dL
same,"sUA <6 mg/dL, n (%)","Week 16-Post-Infusion, n=11",11 (100%)
same,"Serum Uric Acid, Change from Baseline, Mean (SD)","Week 16-Pre-Infusion, n=11",−8.97 (2.810) mg/dL
same,"Serum Uric Acid, Change from Baseline, Median","Week 16-Pre-Infusion, n=11",-8.80 mg/dL
same,"Serum Uric Acid, Observed, Mean (SD)","Week 16-Pre-Infusion, n=11",0.30 (0.000) mg/dL
same,"Serum Uric Acid, Observed, Median","Week 16-Pre-Infusion, n=11",0.30 mg/dL
same,"sUA <6 mg/dL, n (%)","Week 16-Pre-Infusion, n=11",11 (100%)
same,"Serum Uric Acid, Change from Baseline, Mean (SD)","Week 18-Post-Infusion, n=11",−8.97 (2.810) mg/dL
same,"Serum Uric Acid, Change from Baseline, Median","Week 18-Post-Infusion, n=11",-8.80 mg/dL
same,"Serum Uric Acid, Observed, Mean (SD)","Week 18-Post-Infusion, n=11",0.30 (0.000) mg/dL
same,"Serum Uric Acid, Observed, Median","Week 18-Post-Infusion, n=11",0.30 mg/dL
same,"sUA <6 mg/dL, n (%)","Week 18-Post-Infusion, n=11",11 (100%)
same,"Serum Uric Acid, Change from Baseline, Mean (SD)","Week 18-Pre-Infusion, n=11",−8.97 (2.810) mg/dL
same,"Serum Uric Acid, Change from Baseline, Median","Week 18-Pre-Infusion, n=11",-8.80 mg/dL
same,"Serum Uric Acid, Observed, Mean (SD)","Week 18-Pre-Infusion, n=11",0.30 (0.000) mg/dL
same,"Serum Uric Acid, Observed, Median","Week 18-Pre-Infusion, n=11",0.30 mg/dL
same,"sUA <6 mg/dL, n (%)","Week 18-Pre-Infusion, n=11",11 (100%)
same,"Serum Uric Acid, Change from Baseline, Mean (SD)","Week 20-Post-Infusion, n=11",−8.97 (2.810) mg/dL
same,"Serum Uric Acid, Change from Baseline, Median","Week 20-Post-Infusion, n=11",-8.80 mg/dL
same,"Serum Uric Acid, Observed, Mean (SD)","Week 20-Post-Infusion, n=11",0.30 (0.000) mg/dL
same,"Serum Uric Acid, Observed, Median","Week 20-Post-Infusion, n=11",0.30 mg/dL
same,"sUA <6 mg/dL, n (%)","Week 20-Post-Infusion, n=11",11 (100%)
same,"Serum Uric Acid, Change from Baseline, Mean (SD)","Week 20-Pre-Infusion, n=11",−8.97 (2.810) mg/dL
same,"Serum Uric Acid, Change from Baseline, Median","Week 20-Pre-Infusion, n=11",-8.80 mg/dL
same,"Serum Uric Acid, Observed, Mean (SD)","Week 20-Pre-Infusion, n=11",0.30 (0.000) mg/dL
same,"Serum Uric Acid, Observed, Median","Week 20-Pre-Infusion, n=11",0.30 mg/dL
same,"sUA <6 mg/dL, n (%)","Week 20-Pre-Infusion, n=11",11 (100%)
same,"Serum Uric Acid, Change from Baseline, Median","Week 22-Post-Infusion, n=11",-8.80 mg/dL
same,"Serum Uric Acid, Observed, Median","Week 22-Post-Infusion, n=11",0.30 mg/dL
same,"sUA <6 mg/dL, n (%)","Week 22-Post-Infusion, n=11",11 (100%)
same,"Serum Uric Acid, Change from Baseline, Mean (SD)","Week 22-Pre-Infusion, n=11",−8.97 (2.810) mg/dL
same,"Serum Uric Acid, Change from Baseline, Median","Week 22-Pre-Infusion, n=11",-8.80 mg/dL
same,"Serum Uric Acid, Observed, Mean (SD)","Week 22-Pre-Infusion, n=11",0.30 (0.000) mg/dL
same,"Serum Uric Acid, Observed, Median","Week 22-Pre-Infusion, n=11",0.30 mg/dL
same,"sUA <6 mg/dL, n (%)","Week 22-Pre-Infusion, n=11",11(100%)
same,"Serum Uric Acid, Change from Baseline, Mean (SD)","Week 24-Post-Infusion, n=5",−9.18 (4.135) mg/dL
same,"Serum Uric Acid, Change from Baseline, Median","Week 24-Post-Infusion, n=5",-9.30 mg/dL
same,"Serum Uric Acid, Observed, Mean (SD)","Week 24-Post-Infusion, n=5",0.30 (0.000) mg/dL
same,"Serum Uric Acid, Observed, Median","Week 24-Post-Infusion, n=5",0.30 mg/dL
same,"sUA <6 mg/dL, n (%)","Week 24-Post-Infusion, n=5",5 (100%)
same,"Serum Uric Acid, Change from Baseline, Mean (SD)","Week 24-Pre-Infusion, n=11",−8.97 (2.810) mg/dL
same,"Serum Uric Acid, Change from Baseline, Median","Week 24-Pre-Infusion, n=11",-8.80 mg/dL
same,"Serum Uric Acid, Observed, Mean (SD)","Week 24-Pre-Infusion, n=11",0.30 (0.000) mg/dL
same,"Serum Uric Acid, Observed, Median","Week 24-Pre-Infusion, n=11",0.30 mg/dL
same,"sUA <6 mg/dL, n (%)","Week 24-Pre-Infusion, n=11",11 (100%)
same,"Serum Uric Acid, Change from Baseline, Mean (SD)","Week 26-Pre-Infusion, n=8",−9.11 (3.293) mg/dL
same,"Serum Uric Acid, Change from Baseline, Median","Week 26-Pre-Infusion, n=8",-8.95 mg/dL
same,"Serum Uric Acid, Observed, Mean (SD)","Week 26-Pre-Infusion, n=8",0.30 (0.000) mg/dL
same,"Serum Uric Acid, Observed, Median","Week 26-Pre-Infusion, n=8",0.30 mg/dL
same,"sUA <6 mg/dL, n (%)","Week 26-Pre-Infusion, n=8",8 (100%)
same,"Serum Uric Acid, Change from Baseline, Mean (SD)","Week 28-Pre-Infusion, n=8",−9.11 (3.293) mg/dL
same,"Serum Uric Acid, Change from Baseline, Median","Week 28-Pre-Infusion, n=8",-8.95 mg/dL
